# According to the supplement of paper PMC10307832:
# Key:
# Assay in all cases: relative viability (nuclei count vs DMSO), 5 days (fraction); higher = more cells survive
# Ispinesib + Linsitinib = compound: Cc1ccc(C(=O)N(CCCN)[C@@H](c2nc3cc(Cl)ccc3c(=O)n2Cc2ccccc2)C(C)C)cc1 [Ispinesib] + C[C@]1(O)C[C@@H](c2nc(-c3ccc4ccc(-c5ccccc5)nc4c3)c3c(N)nccn32)C1 [Linsitinib] (partner 1 µM)
# How it was run: (§1)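 Dosing by pin tool came one day after lung cancer cell lines were seeded in 1536-well plates, using either one drug or a fixed anchor-drug dose plus five library-drug doses (not always all listed) in √10 steps. After 5 days, nuclei were counted on 4× images. Relative viability is treated-well nuclei count divided by vehicle-well nuclei count, and values are medians of duplicate plates.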
# Linsitinib + Navitoclax = compound: C[C@]1(O)C[C@@H](c2nc(-c3ccc4ccc(-c5ccccc5)nc4c3)c3c(N)nccn32)C1 [Linsitinib] + CC1(C)CCC(c2ccc(Cl)cc2)=C(CN2CCN(c3ccc(C(=O)NS(=O)(=O)c4ccc(N[C@H](CCN5CCOCC5)CSc5ccccc5)c(S(=O)(=O)C(F)(F)F)c4)cc3)CC2)C1 [Navitoclax] (partner 0.5 µM)
# How it was run: as §1
# Linsitinib + Bortezomib = compound: C[C@]1(O)C[C@@H](c2nc(-c3ccc4ccc(-c5ccccc5)nc4c3)c3c(N)nccn32)C1 [Linsitinib] + CC(C)C[C@H](NC(=O)[C@H](Cc1ccccc1)NC(=O)c1cnccn1)B(O)O [Bortezomib] (partner 0.002 µM)
# How it was run: as §1
# Linsitinib + Tozasertib = compound: C[C@]1(O)C[C@@H](c2nc(-c3ccc4ccc(-c5ccccc5)nc4c3)c3c(N)nccn32)C1 [Linsitinib] + Cc1cc(Nc2cc(N3CCN(C)CC3)nc(Sc3ccc(NC(=O)C4CC4)cc3)n2)n[nH]1 [Tozasertib] (partner 0.1 µM)
# How it was run: as §1
Cell Line,relative viability (Ispinesib + Linsitinib; first compound 0.001 µM),relative viability (Ispinesib + Linsitinib; first compound 0.003162 µM),relative viability (Ispinesib + Linsitinib; first compound 0.01 µM),relative viability (Ispinesib + Linsitinib; first compound 0.03162 µM),relative viability (Ispinesib + Linsitinib; first compound 0.1 µM),relative viability (Linsitinib + Navitoclax; first compound 0.01 µM),relative viability (Linsitinib + Navitoclax; first compound 0.03162 µM),relative viability (Linsitinib + Navitoclax; first compound 0.1 µM),relative viability (Linsitinib + Navitoclax; first compound 0.3162 µM),relative viability (Linsitinib + Navitoclax; first compound 1 µM),relative viability (Linsitinib + Bortezomib; first compound 0.01 µM),relative viability (Linsitinib + Bortezomib; first compound 0.03162 µM),relative viability (Linsitinib + Bortezomib; first compound 0.1 µM),relative viability (Linsitinib + Bortezomib; first compound 0.3162 µM),relative viability (Linsitinib + Bortezomib; first compound 1 µM),relative viability (Linsitinib + Tozasertib; first compound 0.01 µM),relative viability (Linsitinib + Tozasertib; first compound 0.03162 µM),relative viability (Linsitinib + Tozasertib; first compound 0.1 µM),relative viability (Linsitinib + Tozasertib; first compound 0.3162 µM),relative viability (Linsitinib + Tozasertib; first compound 1 µM)
201T,1.08,1.06,1.06,1.01,0.988,1.22,1.26,1.23,1.29,1.24,1.1,1.12,1.08,1.08,1.03,0.951,0.929,0.988,0.977,0.938
A549,0.628,0.551,0.769,0.434,0.0756,1.21,1.15,1.1,1.01,0.895,–,–,–,–,–,–,–,–,–,–
A-427,1.15,1.13,1.15,1.21,1.12,0.97,0.964,0.999,–,0.967,0.974,1.02,0.987,–,0.869,0.211,0.222,0.234,–,0.177
ABC-1,0.94,0.874,0.965,0.376,0.338,–,–,–,–,–,0.325,0.291,0.276,0.284,0.252,0.18,0.164,0.145,0.153,0.171
BEN,1,1.12,1.06,0.682,0.32,0.0565,0.0788,0.0565,0.0421,0.0587,0.884,0.78,0.658,0.612,0.626,0.537,0.611,0.481,0.377,0.486
CAL-12T,0.98,0.784,0.785,0.778,0.193,1.2,1.2,1.28,1.05,0.991,0.873,0.882,0.996,0.833,0.817,0.267,0.287,0.296,0.255,0.225
COR-L23,1.12,0.946,1,0.161,0.16,0.915,1.01,1.11,0.931,0.897,0.861,1.03,1.08,0.896,1.06,0.196,0.207,0.396,0.174,0.152
COR-L 105,0.985,0.993,0.814,0.492,0.26,0.826,0.759,0.856,0.604,0.709,0.821,0.619,0.785,0.389,0.501,0.421,0.324,0.356,0.298,0.309
Calu-6,0.998,–,0.712,0.297,0.133,0.826,0.688,0.843,0.629,0.572,0.996,1.04,1.05,0.867,0.905,–,–,–,–,–
ChaGo-K-1,–,–,–,–,–,1.09,0.793,0.829,0.377,0.939,1.05,0.98,0.922,0.443,1,0.208,0.184,0.221,0.227,0.2
EBC-1,0.926,1.04,1.04,0.8,0.187,0.424,0.411,0.393,0.352,0.251,0.59,0.536,0.579,0.519,0.442,–,–,–,–,–
EKVX,1.15,1.05,1.17,0.927,0.454,0.967,0.637,0.989,0.814,0.854,1.12,1.02,1.07,0.9,0.852,0.362,0.385,0.493,0.214,0.352
EMC-BAC-2,0.831,0.847,0.858,0.614,0.487,1.16,1.17,1.14,0.996,1.16,1.08,1.05,1.01,0.628,0.917,0.294,0.271,0.291,0.206,0.255
EPLC-272H,1.17,1.53,1.48,1.05,1.06,1.12,1.29,1.41,–,1.2,0.882,1.11,1.06,–,0.857,0.358,0.249,–,–,0.222
H3255,0.919,1.19,1.06,0.785,0.292,0.615,0.504,0.499,0.433,0.395,0.803,0.796,0.812,0.541,0.627,0.626,0.65,0.612,0.497,0.559
HARA,0.993,0.85,1.32,1.07,0.207,1.09,1.17,1.13,0.788,1.15,1.11,1.08,1.21,0.666,1.15,0.135,0.106,0.202,–,0.138
HCC-15,0.998,1.06,1.06,0.663,0.415,0.657,0.698,0.693,0.489,0.62,1.04,0.938,1.1,0.297,0.785,0.389,0.424,0.404,–,0.319
HCC-44,0.702,0.746,0.812,0.698,0.248,1.01,0.839,0.85,0.718,0.794,0.841,0.775,0.874,0.497,0.529,1.1,0.889,0.849,0.557,0.573
HCC-78,0.51,0.498,0.509,–,0.151,0.882,0.889,0.711,0.789,0.661,0.511,0.645,0.507,0.525,0.395,0.643,0.482,0.418,0.378,0.319
HCC-366,1.13,0.595,1.04,0.719,0.167,1.04,0.782,1.12,0.921,0.996,1.06,1.02,1.1,0.959,0.906,0.108,0.147,0.187,0.0897,0.0876
HCC-827,0.955,1.01,1.01,0.959,0.892,1,1.04,1.01,–,0.974,1.04,1.04,0.934,0.827,1.01,0.43,0.426,0.433,–,0.393

Cell Line,relative viability (Ispinesib + Linsitinib; first compound 0.001 µM),relative viability (Ispinesib + Linsitinib; first compound 0.003162 µM),relative viability (Ispinesib + Linsitinib; first compound 0.01 µM),relative viability (Ispinesib + Linsitinib; first compound 0.03162 µM),relative viability (Ispinesib + Linsitinib; first compound 0.1 µM),relative viability (Linsitinib + Navitoclax; first compound 0.01 µM),relative viability (Linsitinib + Navitoclax; first compound 0.03162 µM),relative viability (Linsitinib + Navitoclax; first compound 0.1 µM),relative viability (Linsitinib + Navitoclax; first compound 0.3162 µM),relative viability (Linsitinib + Navitoclax; first compound 1 µM),relative viability (Linsitinib + Bortezomib; first compound 0.01 µM),relative viability (Linsitinib + Bortezomib; first compound 0.03162 µM),relative viability (Linsitinib + Bortezomib; first compound 0.1 µM),relative viability (Linsitinib + Bortezomib; first compound 0.3162 µM),relative viability (Linsitinib + Bortezomib; first compound 1 µM),relative viability (Linsitinib + Tozasertib; first compound 0.01 µM),relative viability (Linsitinib + Tozasertib; first compound 0.03162 µM),relative viability (Linsitinib + Tozasertib; first compound 0.1 µM),relative viability (Linsitinib + Tozasertib; first compound 0.3162 µM),relative viability (Linsitinib + Tozasertib; first compound 1 µM)
IA-LM,0.493,0.567,0.996,0.549,0.158,0.882,0.785,0.775,0.6,0.531,0.748,0.824,0.789,0.648,0.678,–,–,–,–,–
LCLC-103H,1.12,1.25,1.21,1.04,1.02,–,–,–,–,–,1.11,0.951,1.17,1.05,0.892,0.534,0.496,0.497,0.472,0.331
LK-2,0.805,0.328,0.521,0.435,0.267,0.875,0.829,0.759,0.575,0.531,–,–,–,–,–,0.179,0.173,0.172,0.18,0.177
NCI-H358,0.785,0.671,0.735,0.397,0.236,–,–,–,–,–,–,–,–,–,–,0.0907,0.0851,0.114,0.0862,0.0939
NCI-H522,–,–,–,–,–,–,–,–,–,–,–,–,–,–,–,0.525,0.516,0.521,–,0.514
NCI-H650,0.995,0.958,0.887,0.358,0.245,–,–,–,–,–,0.721,0.768,0.863,–,0.584,0.762,0.786,0.699,0.502,0.601
NCI-H661,0.535,0.528,0.462,0.494,0.605,–,–,–,–,–,0.893,0.801,0.761,0.986,0.749,0.361,0.383,0.335,0.308,0.368
NCI-H1299,1.06,1.12,0.81,0.941,0.375,1.07,1.03,1.03,0.916,1.04,1.06,0.972,1.05,0.944,0.986,–,–,–,–,–
NCI-H1395,1.1,1.04,0.966,0.407,0.436,1.14,0.904,1.47,1,1.15,–,–,–,–,–,0.838,0.768,0.723,0.731,0.667
NCI-H1563,1.29,1.19,1.27,1.1,0.844,–,–,–,–,–,0.835,0.86,0.87,0.719,0.827,–,–,–,–,–
NCI-H1623,–,–,–,–,–,–,–,–,–,–,–,–,–,–,–,0.363,0.445,0.412,–,0.364
NCI-H1648,–,–,–,–,–,–,–,–,–,–,–,–,–,–,–,0.5,0.697,0.412,–,0.396
NCI-H1650,–,–,–,–,–,1.33,1.36,1.29,0.743,1.1,0.208,0.202,0.184,0.182,0.223,0.412,0.549,0.412,0.323,0.288
NCI-H1703,0.742,0.64,0.504,0.106,0.0823,0.894,–,1.43,0.924,0.932,0.416,–,0.317,0.288,0.314,–,–,–,–,–
NCI-H1792,0.45,0.52,0.492,0.25,0.392,0.553,0.597,0.5,0.54,0.438,0.971,0.953,0.928,0.775,0.704,–,–,–,–,–
NCI-H1793,0.866,1.02,0.961,0.707,0.562,0.374,0.353,0.469,0.322,0.425,–,–,–,–,–,0.388,0.454,0.316,0.313,0.274
NCI-H1944,1.24,1.38,1.18,0.975,0.979,1.02,1.1,1.04,0.93,0.917,–,–,–,–,–,0.247,0.256,0.235,0.209,0.221
NCI-H2170,–,–,–,–,–,0.615,0.622,0.456,0.543,0.501,–,–,–,–,–,0.732,0.76,0.681,0.513,0.678
NCI-H2342,–,–,–,–,–,–,–,–,–,–,–,–,–,–,–,0.554,0.54,0.516,0.651,0.412
SK-MES-1,1.1,1.09,1.21,1.11,0.261,1.26,1.31,1.33,0.979,1.16,–,–,–,–,–,0.92,0.895,0.927,0.8,0.676
SW 900,–,–,–,–,–,–,–,–,–,–,–,–,–,–,–,0.635,0.598,0.535,0.513,0.342
